# Measured values as given in EP4696306A1, “ADENOSINE TRIPHOSPHATE SECRETION INHIBITOR, HEPATIC STELLATE CELL ACTIVATION INHIBITOR, HEPATIC STELLATE CELL DEACTIVATOR, HEPATIC FIBROSIS THERAPEUTIC AGENT, NON-ALCOHOLIC STEATOHEPATITIS THERAPEUTIC AGENT, PSORIASIS THERAPEUTIC AGENT, AND USE OF COMPOUND FOR PRODUCING ADENOSINE TRIPHOSPHATE …” (KURUME UNIVERSITY, priority 2023, dated 2024).
# Legend:
# [1] = tested on: ATP transport activity in isolated chromaffin granule membranes; experiment: ATP transport (3H-ATP uptake) in chromaffin granule membrane vesicles; assay type: biochemical, bovine; conditions: for IC50: PEP analogs; for inhibitory activity on ATP transport: concentration not given
# Protocol: (§1) Chromaffin granule membranes were prepared from adrenal glands collected from slaughtered cattle according to Reference A (Nathan Nelson et al., 1988, Chromaffin Granule Proton Pump, Methods in Enzymology, 157, 619-633). Chromaffin granule membranes prepared by sucrose density gradient centrifugation were suspended in 2 ml of SME buffer (20 mM MOPS-tris (pH 7.0), 0.3 M sucrose, 5 mM EDTA, 10 µg/ml leupeptin, and 10 µg/ml pepstatin) + 25% glycerol, and the resulting suspension was aliquoted and stored at -80°C. Under these conditions, the ATP transport activity, the V-ATPase activity, and the catecholamine transport activity remain fully active for at least one year.
# An ATP transport inhibition experiment for the chromaffin granule membrane was carried out according to Reference B (Yoshinori Moriyama et al., 2022, Is the vesicular nucleotide transporter a molecular target of eicosapentaenoic acid?, Frontiers in Pharmacology, 103389). About 20 µg of chromaffin granule membranes were added to 0.5 ml of measurement buffer (20 mM MOPS-tris (pH 7.0), 0.3 M sucrose, 5 mM potassium chloride, 5 mM magnesium acetate, 5 mM creatine phosphate, 10 units of creatine kinase, and 1 mM ^3[H]-ATP [15 KBq/assay]), followed by incubation at 30°C for 1 hour. Through a Millipore MCE membrane filter with a pore size 0.45 µm, 0.2 ml of the reaction liquid was filtered by suction. Thereafter, the filter was washed with 10 ml of 20 mM MOPS-tris (pH 7.0), 0.3 M sucrose, 5 mM potassium chloride, and 5 mM magnesium acetate, and dissolved in 10 ml of Clear-sol II (manufactured by Nacalai Tesque, Inc.). The radioactivity was then measured using a liquid scintillation counter (N = 3).
# The reaction was initiated by adding 50 mM ^3[H]-ATP to a final concentration of 1 mM. The 50 mM ^3[H]-ATP was prepared by mixing an ATP-tris solution (manufactured by Sigma-Aldrich) with [2,8-^3H] adenosine triphosphate tetrasodium salt (26.0 Ci/mmol) (manufactured by New England Nuclear). PEP was used as a test reagent, and pyruvic acid was used as a negative control. Five minutes before the addition of ATP, PEP or pyruvic acid, as a solution in 20 mM MOPS-tris (pH 7.0), 0.3 M sucrose, 5 mM potassium chloride, and 5 mM magnesium acetate, was added to the measurement liquid to a final PEP concentration of 0.02, 0.05, 0.1, 0.2, 0.4, or 1 mM, or to a final pyruvic acid concentration of 0.5 or 1 mM.
# (§2) Chromaffin granule membrane vesicles were prepared in the same manner as in Example 5, and uptake of radiolabeled ATP into the vesicles was measured. Transport activity of catecholamine (dopamine) and ATP-dependent proton transport by V-ATPase were also measured in the same manner as in Example 5.
# catecholamine transport = experiment: Catecholamine (3H-dopamine) transport in chromaffin granule membranes; assay type: biochemical, bovine; conditions: 1 µM reserpine
# Protocol: as §1
# A catecholamine transport inhibition experiment was carried out in the same manner as the ATP transport experiment except that the experiment used a measurement liquid containing 20 mM MOPS-tris (pH 7.0), 0.1 M sucrose, 0.1 M potassium chloride, 5 mM magnesium acetate, and about 5 µg of chromaffin granule membranes. To 0.5 ml of the measurement liquid, 2 mM ATP was added, and the resulting mixture was incubated at 30°C for about 5 minutes, followed by addition of^3 [H]-dopamine thereto to a final concentration of 10 µM. After further incubation at 30°C for 15 minutes, 0.2 ml of the reaction liquid was subjected to suction filtration through a Millipore MCE membrane filter with a pore size of 0.45 µm, and the radioactivity on the filter was measured (N = 3). The substrate, ^3[H]-dopamine, was prepared by mixing 3,4-[RING-2,5,6-^3H]dihydroxyphenylethylamine (dopamine) (30 Ci/mmol) (manufactured by New England Nuclear) with dopamine hydrochloride (manufactured by LKT Laboratories) such that a final concentration of 0.1 mM was achieved during the use.
# as §2
SMILES,inhibitory activity on ATP transport [1],further results
O=C(O)C(O)COP(=O)(O)O (stereo not drawn) [3-phosphoglyceric acid],,IC50 [1]: 450 µM
O=C(O)[C@@H](CO)OP(=O)(O)O [D-2-phosphoglyceric acid],,IC50 [1]: 180 µM
O=C(O)[C@H](CO)OP(=O)(O)O [L-2-phosphoglyceric acid],,IC50 [1]: 180 µM
C[C@H](O)C(=O)O [L-lactic acid],no inhibitory activity,
NC(=O)c1ccc[n+]([C@@H]2O[C@H](COP(=O)([O-])OP(=O)(O)OC[C@H]3O[C@@H](n4cnc5c(N)ncnc54)[C@H](O)[C@@H]3O)[C@@H](O)[C@H]2O)c1 [NAD+],no inhibitory activity,
CC(=O)SCCNC(=O)CCNC(=O)[C@H](O)C(C)(C)COP(=O)(O)OP(=O)(O)OC[C@H]1O[C@@H](n2cnc3c(N)ncnc32)[C@H](O)[C@@H]1OP(=O)(O)O [acetyl-CoA],no inhibitory activity,
O=C(O)CC(O)(CC(=O)O)C(=O)O [citric acid],no inhibitory activity,
O=C(CO)[C@@H](O)[C@H](O)[C@H](O)COP(=O)(O)O [fructose-6-phosphate],no inhibitory activity,
O=C[C@H](O)[C@@H](O)[C@H](O)[C@H](O)COP(=O)(O)O [glucose-6-phosphate],no inhibitory activity,
O=C(O)CC(O)C(=O)O (stereo not drawn) [malic acid],no inhibitory activity,
O=C(O)CC(=O)C(=O)O [oxaloacetic acid],no inhibitory activity,
COC(=O)[C@H]1[C@H]2C[C@@H]3c4[nH]c5cc(OC)ccc5c4CCN3C[C@H]2C[C@@H](OC(=O)c2cc(OC)c(OC)c(OC)c2)[C@@H]1OC [reserpine],,ATP-dependent dopamine transport (catecholamine transport): almost completely blocked
